Data published in article PMC4540356 (Thrombosis and haemostasis, 2010).
pKd: −log10 of the molar value.

What was measured:
integrin αvβ3 [1] = target: T1, integrin αvβ3 (Homo sapiens, UniProt P05106+P06756); assay: Inhibition of HEK-αvβ3 adhesion to immobilised fibrinogen by soluble peptide; format: cell-based; settings: wells coated with 1 μg/ml fibrinogen; 30 min, n=3
HUVEC [2] = assay: Nitric oxide assay in HUVEC; format: cell-based, human; settings: 150 μg/ml TP508 vs 20 μM A23187, 1 h, n=4 (p>0.05)
integrin αvβ3 [3] = target: T1, integrin αvβ3; assay: Surface plasmon resonance, binding to integrin αvβ3; settings: BIAcore 2000, CM5 chip, 1,290 RU RAD-TP508, αvβ3 0.053 to 1.06 μM
HUVEC [4] = assay: Inhibition of HUVEC adhesion to immobilised fibrinogen by soluble peptide; format: cell-based, human; settings: wells coated with 1 μg/ml fibrinogen; 30 min, n=3
HUVEC [5] = assay: Adhesion of HUVEC to immobilised TP508 peptides; format: cell-based, human; settings: calcein AM-labelled cells, 30 min, 37°C, fluorescence, n=3
integrin αvβ3 [6] = target: T1, integrin αvβ3; assay: Adhesion of HEK-αvβ3 cells to immobilised TP508 peptides; format: cell-based; settings: calcein AM-labelled cells, 30 min, 37°C, fluorescence (Ex485/Em530), n=3
αvβ3 = settings: read-out: affinity of αvβ3 to ligand; ref [30]–[31]; cited from earlier work
endothelial cells = settings: thrombin immobilised to a surface, ref [15]–[17]; cited from earlier work
rat aortic rings = assay: Muscle-bath assay, carbachol-induced vasorelaxation of rat aortic rings; set-up: species or system rat (Sprague Dawley); settings: no TP508, 500 nM norepinephrine 10 min, cumulative 750 nM carbachol; n=3 aortas

T1 sequence (P06756 31-889 limits assumed): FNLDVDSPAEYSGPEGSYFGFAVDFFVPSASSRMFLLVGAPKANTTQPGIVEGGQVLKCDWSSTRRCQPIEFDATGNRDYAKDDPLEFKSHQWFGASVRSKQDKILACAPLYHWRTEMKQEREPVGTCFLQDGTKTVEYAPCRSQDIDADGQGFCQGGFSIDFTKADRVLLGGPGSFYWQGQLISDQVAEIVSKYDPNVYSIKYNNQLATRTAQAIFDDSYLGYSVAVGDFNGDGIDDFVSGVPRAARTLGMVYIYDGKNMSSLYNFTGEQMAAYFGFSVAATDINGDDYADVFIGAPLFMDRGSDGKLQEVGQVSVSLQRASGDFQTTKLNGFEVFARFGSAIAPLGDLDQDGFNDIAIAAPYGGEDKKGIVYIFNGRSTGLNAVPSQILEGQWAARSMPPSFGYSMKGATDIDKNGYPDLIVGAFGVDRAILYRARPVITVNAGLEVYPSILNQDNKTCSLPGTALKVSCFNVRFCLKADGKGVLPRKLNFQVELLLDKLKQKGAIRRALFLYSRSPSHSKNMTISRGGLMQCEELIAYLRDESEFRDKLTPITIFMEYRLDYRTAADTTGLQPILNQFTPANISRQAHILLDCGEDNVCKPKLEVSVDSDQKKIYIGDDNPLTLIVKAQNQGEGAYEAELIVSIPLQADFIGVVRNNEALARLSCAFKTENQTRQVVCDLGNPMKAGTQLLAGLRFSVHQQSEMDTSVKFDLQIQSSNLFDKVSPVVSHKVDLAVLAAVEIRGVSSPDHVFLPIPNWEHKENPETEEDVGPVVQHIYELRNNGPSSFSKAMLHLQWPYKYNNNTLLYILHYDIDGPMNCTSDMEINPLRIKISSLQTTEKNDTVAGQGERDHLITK
T1 sequence (P06756 891-1048 partner limits assumed): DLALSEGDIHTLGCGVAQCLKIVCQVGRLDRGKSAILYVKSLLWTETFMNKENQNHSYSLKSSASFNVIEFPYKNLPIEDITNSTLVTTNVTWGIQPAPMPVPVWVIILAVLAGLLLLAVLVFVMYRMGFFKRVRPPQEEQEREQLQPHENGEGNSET
T1 sequence (P05106 27-788): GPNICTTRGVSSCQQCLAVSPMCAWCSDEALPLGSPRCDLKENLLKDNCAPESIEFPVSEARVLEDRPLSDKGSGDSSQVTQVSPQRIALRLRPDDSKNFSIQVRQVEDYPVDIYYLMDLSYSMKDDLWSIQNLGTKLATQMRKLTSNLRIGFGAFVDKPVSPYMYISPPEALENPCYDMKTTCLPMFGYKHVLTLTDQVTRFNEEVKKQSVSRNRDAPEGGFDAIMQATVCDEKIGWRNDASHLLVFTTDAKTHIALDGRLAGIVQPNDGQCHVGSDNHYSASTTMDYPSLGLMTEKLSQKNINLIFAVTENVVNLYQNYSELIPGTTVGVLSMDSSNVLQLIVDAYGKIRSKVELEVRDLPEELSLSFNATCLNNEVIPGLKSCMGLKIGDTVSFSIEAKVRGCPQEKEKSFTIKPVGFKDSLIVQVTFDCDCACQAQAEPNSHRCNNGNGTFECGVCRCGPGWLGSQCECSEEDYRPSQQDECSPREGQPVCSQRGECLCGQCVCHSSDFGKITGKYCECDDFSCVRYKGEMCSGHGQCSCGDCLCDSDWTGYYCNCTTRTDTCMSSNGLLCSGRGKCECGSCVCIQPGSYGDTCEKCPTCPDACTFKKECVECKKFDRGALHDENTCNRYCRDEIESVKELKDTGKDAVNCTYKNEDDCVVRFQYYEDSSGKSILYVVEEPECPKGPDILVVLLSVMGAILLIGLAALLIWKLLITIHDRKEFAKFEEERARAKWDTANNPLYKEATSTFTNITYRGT

GRGDSP
effect of soluble peptide on HEK-αvβ3 adhesion to immobilised fibrinogen (integrin αvβ3 [1]): effectively inhibited cell adhesion

CNc1ccc2oc(C[C@H]3O[C@@]4(CC[C@H]3C)O[C@H]([C@H](C)C(=O)c3ccc[nH]3)[C@H](C)C[C@H]4C)nc2c1C(=O)O [A23187]
NO induction by TP508 compared with A23187 (HUVEC [2]): a potent inducer of NO

AGYKPDEGKRADACEGDSGGPFV [RAD-TP508]
binding of αvβ3 to coupled peptide (SPR) (integrin αvβ3 [3]): No binding | effect of soluble peptide on HUVEC adhesion to immobilised fibrinogen (HUVEC [4]): did not affect HUVEC adhesion to immobilised fibrinogen | adhesion of HUVEC to immobilised peptide (HUVEC [5]): did not support HUVEC adhesion | adhesion of HEK-αvβ3 cells to immobilised peptide (integrin αvβ3 [6]): did not support HEK-αvβ3 adhesion

vitronectin: physiological ligand of αvβ3
pKd (αvβ3): 7.57

KAPSEVDKAGDRDGYGFCGGPGE [scrTP508]
effect of soluble peptide on HUVEC adhesion to immobilised fibrinogen (HUVEC [4]): did not affect HUVEC adhesion to immobilised fibrinogen | adhesion of HUVEC to immobilised peptide (HUVEC [5]): did not support HUVEC adhesion | adhesion of HEK-αvβ3 cells to immobilised peptide (integrin αvβ3 [6]): did not support HEK-αvβ3 adhesion

Thrombin
endothelial cell adhesion to immobilised thrombin (endothelial cells): support endothelial cell adhesion in an RGD-dependent manner

fibrinogen: Human fibrinogen
pKd (αvβ3): 7.19

C[N+](C)(C)CCOC(N)=O [carbachol]
vasorelaxation by carbachol in rings not treated with TP508, 750 nM (rat aortic rings): 20%
